Reference: patent US6835382B2, “Ii peptide therapeutics to enhance antigen presentation” (University of Massachusetts, priority 1996, dated 2004)
Non-standard residues stand in square brackets, D forms with d. Cit = NC(=O)NCCC[C@H](N)C(=O)O; Orn = NCCC[C@H](N)C(=O)O

Key:
[1] = tested on: murine E^k MHC class II allele; experiment: simultaneous assay, E^k allele (CH27 APC, TPc9.1 T hybridoma, THMCC82-103 or PGCC81-104); format: cell-based; conditions: for Times Baseline Response, Ek: Table 3, values reduced relative to E^d by a factor of 10
Protocol: (§1) Examples 1-4 (Tables 1-18) will be briefly considered in order to establish the concept of tolerance discussed above. These examples describe experimental results observed in the so-called “simultaneous” assay. In the simultaneous assay four principle components are cultured together for a 24 hour period. The components of this culture, which are added simultaneously, are: (a) an antigenic peptide characterized by the ability to bind specifically into the antigenic peptide binding groove of an MHC class II molecule, (b) mitomycin C-treated, MHC class II-positive antigen presenting cells (APC) bearing the MHC class II allele required for binding of the specific antigenic peptide, and presentation of the specific antigenic peptide to the antigenic peptide-specific T cell hybridoma, (c) an effector compound of the present invention, and (d) an MHC class II allele-restricted T cell hybridoma specific for the antigenic peptide and the MHC class II allele restricting its presentation. Following incubation of this primary culture, an aliquot of its supernatant is transferred into a second culture well for incubation with an interleukin-dependent lymphoblastoid cell line. The degree of stimulation of that second, indicator cell by the interleukins which had been released from the activated T cell hybridoma in the primary culture is measured by quantitating tritiated thymidine deoxyribose {[^3H]TdR} uptake into the DNA of the HT-2 indicator cells of that second culture.
(§2) In the “simultaneous assay” the four components of the assay are cultured together for a 24 h period. The components of this primary culture, added at the same time or simultaneously, are: (a) the antigenic peptide, (b) mitomycin C-treated, MHC class II-positive antigen presenting cells (APC) with the MHC class II allele required for binding of the specific antigenic peptide and its presentation to the antigenic peptide-specific T cell hybridoma, (c) an AE101 series effector peptide, and (d) MHC class II allele-restricted T cell hybridoma specific for the antigenic peptide and the MHC class II allele restricting its presentation. At the end of the incubation of this primary culture, an aliquot of its supernatant is transferred into a second culture well for incubation with an interleukin-dependent lymphoblastoid cell line. The degree of stimulation of that second, indicator cell by the interleukins which had been released from the activated T cell hybridoma in the primary culture is measured by quantitating tritiated thymidine deoxyribose {[^3H]TdR} uptake into the DNA of the HT-2 indicator cells of that second culture.
(§3) For these various assays, the following antigenic peptides were used: HEL11-25, hen egg lysozyme 11-25, AMKRHGLDNYRGYSL(A^d) (SEQ ID NO:5); HEL46-61, hen egg lysozyme 46-61, NTDGSTDYGILQINSR(Ak) (SEQ ID NO:6); HEL106-116, hen egg lysozyme 106-116, NAWVAWRNRCK (E^d) (SEQ ID NO:7); PGCC81-104, pigeon cytochrome c 81-104, […] (Ek) (SEQ ID NO:8), and THMCC82-103, tobacco hornworm moth cytochrome c 82-103, […] (Ek) (SEQ ID NO:9). AE101 series peptides were obtained from commercial sources. In general, the purity and composition of each peptide was confirmed by HPLC separation and mass spectrometry. The native protein antigens were HEL, hen egg lysozyme, and PGCC, pigeon cytochrome C. They were obtained from commercial sources.
(§4) For the experiments of these Examples, several T cell hybridomas, which are specific for certain antigenic peptides, were used. The TPc9.1 T hybridoma is specific for pigeon cytochrome C 81-104 peptide presented on the murine class II MHC allele E^k. The TPc9.1 hybridoma responds heteroclitically to tobacco hornworm moth cytochrome c 82-103 on E^k. The 3A9 T hybridoma is specific for hen egg lysozyme 46-61 on A^k. The 9.30.B2 hybridoma is specific for hen egg lysozyme 11-25 on A^d, and the G28.C9 hybridoma is specific for hen egg lysozyme 106-116 on E^d. […]

[2] = biological target: T1, murine E^d MHC class II allele (Mus musculus, UniProt P01904+P01915); experiment: simultaneous assay, E^d allele (A20 APC, G28.C9 T hybridoma, HEL106-116; HT-2 [3H]TdR readout); format: cell-based; design: The A20 and CH27 B cell lymphoma lines express H-2^d and H-2^k alleles, respectively; endogenous in cells; host or cells: A20 B cell lymphoma (mitomycin C-treated or paraformaldehyde-fixed); conditions: for Times Baseline Response, Ed: Table 3
T1 sequence (P01904 26-255): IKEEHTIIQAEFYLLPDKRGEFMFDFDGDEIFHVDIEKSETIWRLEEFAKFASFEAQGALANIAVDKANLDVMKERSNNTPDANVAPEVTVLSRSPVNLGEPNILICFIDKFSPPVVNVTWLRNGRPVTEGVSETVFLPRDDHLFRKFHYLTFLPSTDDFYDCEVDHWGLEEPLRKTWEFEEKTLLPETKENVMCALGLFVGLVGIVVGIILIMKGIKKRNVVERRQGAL
T1 sequence (P01915 27-264 limits assumed): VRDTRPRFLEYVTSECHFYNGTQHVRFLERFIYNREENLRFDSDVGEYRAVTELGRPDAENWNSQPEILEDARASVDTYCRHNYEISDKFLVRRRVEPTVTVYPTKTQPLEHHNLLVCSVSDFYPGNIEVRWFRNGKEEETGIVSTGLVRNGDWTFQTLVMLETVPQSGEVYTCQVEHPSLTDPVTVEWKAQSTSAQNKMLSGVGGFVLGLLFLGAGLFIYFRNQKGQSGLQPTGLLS
Protocol: as §1, §2, §3, §4

[3] = AE peptide 64 μM, supernatant 1:4
[4] = Table 6, AE peptide 64 μM, supernatant 1:4, reduced by a factor of 5
[5] = Table 6, AE peptide 64 μM, supernatant 1:4
[6] = Table 1, AE peptide 16 μM (second value), 0.075 μM THMCC82-103, supernatant 1:2
[7] = Table 1, AE peptide 64 μM (first value), 0.075 μM THMCC82-103, supernatant 1:2
[8] = Table 1, AE peptide 16 μM (second value), 0.4 μM HEL106-116, supernatant 1:4
[9] = Table 1, AE peptide 64 μM (first value), 0.4 μM HEL106-116, supernatant 1:4
[10] = Table 10, AE peptide 64 μM, supernatant 1:2 (first value)
[11] = Table 10, AE peptide 64 μM, supernatant 1:4 (second value)
[12] = Table 10, AE peptide 16 μM (second value), supernatant 1:2
[13] = Table 10, AE peptide 64 μM (first value), supernatant 1:2
[14] = Table 9, AE peptide 64 μM, supernatant 1:4, normalized by a factor of 5
[15] = Table 9, AE peptide 64 μM, supernatant 1:4
[16] = Table 5, AE peptide 64 μM, supernatant 1:4, normalized to E^d by a factor of 10
[17] = Table 5, AE peptide 64 μM, supernatant 1:4

Ac-[Cit]RMKLPK-NH2 [AE181]
Times Baseline Response, Ek [1, 3]: 11.5 | Times Baseline Response, Ed [2, 3]: 9.0

Ac-H RMKLPK-NH2 [AE183]
Times Baseline Response, Ek [1, 3]: 17.3 | Times Baseline Response, Ed [2, 3]: 10.3

Ac-E RMKLPK-NH2 [AE186]
Times Baseline Response, Ek [1, 3]: 1.3 | Times Baseline Response, Ed [2, 3]: 2.5

Ac-LRM N LPK-NH2 [AE216]
Times Baseline Response, E^k [1, 4]: 3.3 | Times Baseline Response, E^d [2, 5]: 2.4

RMKLPKSAKPVSQMR [AE102]
Times Baseline Response, E^k [1, 6]: 0.8 | Times Baseline Response, E^k [1, 7]: 1.0 | Times Baseline Response, E^d [2, 8]: 4.2 | Times Baseline Response, E^d [2, 9]: 13.3

Ac-YRMKAPKSAK-NH2 [AE124]
Times Baseline Response, E^k [1, 10]: 66.0 | Times Baseline Response, E^k [1, 11]: 65.9 | Times Baseline Response, E^d [2, 12]: 7.3 | Times Baseline Response, E^d [2, 13]: 12.5

Ac-LRMKLP Y-NH2 [AE249]
Times Baseline Response, E^k [1, 14]: 17.1 | Times Baseline Response, E^d [2, 15]: 12.2

Ac-LR E KLPK-NH2 [AE201]
Times Baseline Response, E^k [1, 16]: 3.4 | Times Baseline Response, E^d [2, 17]: 7.0

Ac-YRMALPKSAK-NH2 [AE123]
Times Baseline Response, E^k [1, 10]: 65.0 | Times Baseline Response, E^k [1, 11]: 51.1 | Times Baseline Response, E^d [2, 12]: 10.7 | Times Baseline Response, E^d [2, 13]: 24.0

Ac-LRM[Orn]LPK-NH2 [AE210]
Times Baseline Response, E^k [1, 4]: 9.0 | Times Baseline Response, E^d [2, 5]: 6.6

Ac-LRMKLP HArg-NH2 [AE242]
Times Baseline Response, E^k [1, 14]: 17.6 | Times Baseline Response, E^d [2, 15]: 8.0

Ac-YRAKLPKSAK-NH2 [AE122]
Times Baseline Response, E^k [1, 10]: 46.2 | Times Baseline Response, E^k [1, 11]: 41.4 | Times Baseline Response, E^d [2, 12]: 9.2 | Times Baseline Response, E^d [2, 13]: 16.2

Ac-F RMKLPK-NH2 [AE189]
Times Baseline Response, Ek [1, 3]: 18.2 | Times Baseline Response, Ed [2, 3]: 12.1

Ac-YRMKLAKSAK-NH2 [AE125]
Times Baseline Response, E^k [1, 10]: 38.7 | Times Baseline Response, E^k [1, 11]: 32.8 | Times Baseline Response, E^d [2, 12]: 1.7 | Times Baseline Response, E^d [2, 13]: 2.0

Ac-LRMKLP D-NH2 [AE244]
Times Baseline Response, E^k [1, 14]: 2.7 | Times Baseline Response, E^d [2, 15]: 0.9

Ac-YRMKLPKSA-NH2 [AE111]
Times Baseline Response, E^k [1, 6]: 2.0 | Times Baseline Response, E^k [1, 7]: 7.2 | Times Baseline Response, E^d [2, 8]: 18.8 | Times Baseline Response, E^d [2, 9]: 39.2

Ac-YRMKLPKAAK-NH2 [AE127]
Times Baseline Response, E^k [1, 10]: 63.6 | Times Baseline Response, E^k [1, 11]: 63.4 | Times Baseline Response, E^d [2, 12]: 12.4 | Times Baseline Response, E^d [2, 13]: 19.1

Ac-LRM HArg LPK-NH2 [AE212]
Times Baseline Response, E^k [1, 4]: 15.4 | Times Baseline Response, E^d [2, 5]: 13.2

Ac-LRM[Cit]LPK-NH2 [AE211]
Times Baseline Response, E^k [1, 4]: 3.4 | Times Baseline Response, E^d [2, 5]: 1.7

Ac-LR K KLPK-NH2 [AE199]
Times Baseline Response, E^k [1, 16]: 22.9 | Times Baseline Response, E^d [2, 17]: 12.1
